# From ChEMBL document CHEMBL4665709, “Rational Avoidance of Protease Cleavage Sites and Symmetrical End-Tagging Significantly Enhances the Stability and Therapeutic Potential of Antimicrobial Peptides” (J Med Chem, 2020)
# Where a SMILES comes first, the peptide text is derived from it.
# Columns and labels:
# [1] = Therapeutic index, ratio of MHC for human RBC to geometric mean of peptide MIC for Salmonella choleraesuis 503; type: toxicity; conditions: human red blood cells (RBC), read-out: TI
# [2] = Therapeutic index, ratio of MHC for human RBC to geometric mean of peptide MIC for Staphylococcus aureus 11011; type: toxicity; conditions: human red blood cells (RBC), read-out: TI
# [3] = Therapeutic index, ratio of MHC for human RBC to geometric mean of peptide MIC for Salmonella pullorum 7913; type: toxicity; conditions: human red blood cells (RBC), read-out: TI
# [4] = tested on: Salmonella typhimurium; assay: Antibacterial activity against Salmonella typhimurium 7731 after 18 to 24 hrs by CLSI-based broth microdilution method; type: functional, Salmonella enterica subsp. enterica serovar Typhimurium; conditions: Salmonella enterica, time hrs 18-24
# [5] = tested on: Staphylococcus epidermidis; assay: Antibacterial activity against Staphylococcus epidermidis ATCC 12228 after 18 to 24 hrs by CLSI-based broth microdilution method; type: functional; conditions: time hrs 18-24
# [6] = tested on: Escherichia coli; assay: Antibacterial activity against Escherichia coli ATCC 25922 after 18 to 24 hrs by CLSI-based broth microdilution method; type: functional; conditions: time hrs 18-24
# [7] = Therapeutic index, ratio of MHC for human RBC to geometric mean of peptide MIC for Escherichia coli ATCC 25922; type: toxicity; conditions: human red blood cells (RBC), read-out: TI
# [8] = tested on: Salmonella typhimurium; assay: Antibacterial activity against Salmonella typhimurium 14028 after 18 to 24 hrs by CLSI-based broth microdilution method; type: functional, Salmonella enterica subsp. enterica serovar Typhimurium; conditions: Salmonella enterica, time hrs 18-24
# [9] = Therapeutic index, ratio of MHC for human RBC to geometric mean of peptide MIC for Salmonella typhimurium 14028; type: toxicity; conditions: human red blood cells (RBC), read-out: TI
# [10] = Hemolytic activity in human RBC assessed as hemolysis at 1 to 128 uM relative to control; type: ADME, cell-based, Erythrocyte; conditions: human red blood cells (RBC), dose 1-128 µM, read-out: Activity
# [11] = tested on: Staphylococcus aureus; assay: Antibacterial activity against Staphylococcus aureus ATCC 29213 after 18 to 24 hrs by CLSI-based broth microdilution method; type: functional; conditions: time hrs 18-24
# [12] = Therapeutic index, ratio of MHC for human RBC to geometric mean of peptide MIC for Staphylococcus epidermidis ATCC 12228; type: toxicity; conditions: human red blood cells (RBC), read-out: TI
# [13] = tested on: Staphylococcus aureus; assay: Antibacterial activity against Staphylococcus aureus 11011 after 18 to 24 hrs by CLSI-based broth microdilution method; type: functional; conditions: time hrs 18-24
# [14] = Therapeutic index, ratio of MHC for human RBC to geometric mean of peptide MIC for Enterococcus faecalis ATCC 29212; type: toxicity; conditions: human red blood cells (RBC), read-out: TI
# [15] = Therapeutic index, ratio of MHC for human RBC to geometric mean of peptide MIC for Escherichia coli UB1005; type: toxicity; conditions: human red blood cells (RBC), read-out: TI
# [16] = Therapeutic index, ratio of MHC for human RBC to geometric mean of peptide MIC for methicillin-resistant Staphylococcus aureus 43300; type: toxicity; conditions: human red blood cells (RBC), read-out: TI
# [17] = tested on: Streptococcus agalactiae; assay: Antibacterial activity against Streptococcus agalactiae H92 after 18 to 24 hrs by CLSI-based broth microdilution method; type: functional; conditions: time hrs 18-24
# [18] = Cytotoxicity against HEK-293T cells assessed as cell viability at 128 uM by MTT assay relative to control; type: cell-based; conditions: human, read-out: Activity
# [19] = tested on: Staphylococcus aureus; assay: Antibacterial activity against methicillin-resistant Staphylococcus aureus 43300 after 18 to 24 hrs by CLSI-based broth microdilution method; type: functional; conditions: time hrs 18-24
# [20] = tested on: Erythrocyte; assay: Hemolytic activity in human RBC assessed as hemolysis; type: ADME, cell-based
# [21] = Therapeutic index, ratio of MHC for human RBC to geometric mean of peptide MIC for Salmonella typhimurium 7731; type: toxicity; conditions: human red blood cells (RBC), read-out: TI
# [22] = Cytotoxicity against mouse RAW264.7 cells assessed as cell viability at 128 uM by MTT assay relative to control; type: cell-based; conditions: read-out: Activity
# [23] = tested on: Salmonella enterica; assay: Antibacterial activity against Salmonella choleraesuis 503 after 18 to 24 hrs by CLSI-based broth microdilution method; type: functional; conditions: time hrs 18-24
# [24] = tested on: Escherichia coli; assay: Antibacterial activity against Escherichia coli UB1005 after 18 to 24 hrs by CLSI-based broth microdilution method; type: functional; conditions: time hrs 18-24
# [25] = Antibacterial activity against Salmonella pullorum 7913 after 18 to 24 hrs by CLSI-based broth microdilution method; type: functional, Salmonella enterica subsp. enterica serovar Pullorum; conditions: Salmonella enterica, time hrs 18-24
# [26] = Therapeutic index, ratio of MHC for human RBC to geometric mean of peptide MIC for Streptococcus agalactiae H92; type: toxicity; conditions: human red blood cells (RBC), read-out: TI
# [27] = tested on: Enterococcus faecalis; assay: Antibacterial activity against Enterococcus faecalis ATCC 29212 after 18 to 24 hrs by CLSI-based broth microdilution method; type: functional; conditions: time hrs 18-24
# [28] = Therapeutic index, ratio of MHC for human RBC to geometric mean of peptide MIC for Staphylococcus aureus ATCC 29213; type: toxicity; conditions: human red blood cells (RBC), read-out: TI
SMILES,selectivity ratio [1],selectivity ratio [2],selectivity ratio [3],MIC [4] [µM],MIC [5] [µM],MIC [6] [µM],selectivity ratio [7],MIC [8] [µM],selectivity ratio [9],hemolysis at up to 128 µM [10] [%],MIC [11] [µM],selectivity ratio [12],MIC [13] [µM],selectivity ratio [14],selectivity ratio [15],selectivity ratio [16],MIC [17] [µM],viability at 128 µM [18] [%],MIC [19] [µM],MHC [20] [µM],further results
CC(C)[C@H](N)C(=O)N[C@@H](CS)C(=O)N[C@@H](CCCNC(=N)N)C(=O)N[C@@H](CCCCN)C(=O)N1CCC[C@H]1C(=O)N[C@H](C(=O)N[C@H](C(=O)N[C@@H](CS)C(=O)N[C@@H](CCCNC(=N)N)C(=O)N[C@@H](CCCCN)C(=O)N1CCC[C@H]1C(=O)N[C@H](C(N)=O)C(C)C)C(C)C)C(C)C (H-VCRKPVVCRKPV-NH2),2,2,2,> 64,> 64,> 64,2,> 64,2,< 5,> 64,2,> 64,2,2,2,> 64,> 90,> 64,> 128,selectivity ratio [21]: 2; viability at 128 µM [22]: > 90%; MIC [23]: > 64 µM; MIC [24]: > 64 µM; MIC [25]: > 64 µM; selectivity ratio [26]: 2; MIC [27]: > 64 µM; selectivity ratio [28]: 2
CC[C@H](C)[C@H](N)C(=O)N[C@@H](CS)C(=O)N[C@@H](CCCNC(=N)N)C(=O)N[C@@H](CCCCN)C(=O)N1CCC[C@H]1C(=O)N[C@H](C(=O)N[C@H](C(=O)N[C@@H](CS)C(=O)N[C@@H](CCCNC(=N)N)C(=O)N[C@@H](CCCCN)C(=O)N1CCC[C@H]1C(=O)N[C@H](C(N)=O)[C@@H](C)CC)[C@@H](C)CC)[C@@H](C)CC (H-ICRKPIICRKPI-NH2),2,2,2,> 64,> 64,64,2,> 64,2,< 5,> 64,2,> 64,2,2,2,> 64,> 90,> 64,> 128,selectivity ratio [21]: 2; viability at 128 µM [22]: > 90%; MIC [23]: > 64 µM; MIC [24]: > 64 µM; MIC [25]: > 64 µM; selectivity ratio [26]: 2; MIC [27]: > 64 µM; selectivity ratio [28]: 2
CC[C@H](C)[C@H](N)C(=O)N[C@@H](CS)C(=O)N[C@@H](CCCNC(=N)N)C(=O)N[C@@H](CCCCN)C(=O)N1CCC[C@H]1C(=O)N[C@H](C(=O)N[C@H](C(=O)N[C@@H](CS)C(=O)N[C@@H](CCCNC(=N)N)C(=O)N[C@@H](CCCCN)C(=O)N1CCC[C@H]1C(=O)N[C@H](C(=O)N[C@H](C(=O)N[C@@H](CS)C(=O)N[C@@H](CCCNC(=N)N)C(=O)N[C@@H](CCCCN)C(=O)N1CCC[C@H]1C(=O)N[C@H](C(=O)N[C@H](C(=O)N[C@@H](CS)C(=O)N[C@@H](CCCNC(=N)N)C(=O)N[C@@H](CCCCN)C(=O)N1CCC[C@H]1C(=O)N[C@H](C(=O)N[C@H](C(=O)N[C@@H](CS)C(=O)N[C@@H](CCCNC(=N)N)C(=O)N[C@@H](CCCCN)C(=O)N1CCC[C@H]1C(=O)N[C@H](C(N)=O)[C@@H](C)CC)[C@@H](C)CC)[C@@H](C)CC)[C@@H](C)CC)[C@@H](C)CC)[C@@H](C)CC)[C@@H](C)CC)[C@@H](C)CC)[C@@H](C)CC (H-ICRKPIICRKPIICRKPIICRKPIICRKPI-NH2),28.5,2,28.5,4,> 64,4,28.5,4,28.5,< 5,> 64,2,> 64,2,28.5,2,> 64,> 90,> 64,> 128,selectivity ratio [21]: 28.5; viability at 128 µM [22]: > 90%; MIC [23]: 8 µM; MIC [24]: 2 µM; MIC [25]: 8 µM; selectivity ratio [26]: 2; MIC [27]: > 64 µM; selectivity ratio [28]: 2
CC[C@H](C)[C@H](N)C(=O)N[C@H](C(=O)N[C@H](C(=O)N[C@@H](CS)C(=O)N[C@@H](CCCNC(=N)N)C(=O)N[C@@H](CCCCN)C(=O)N1CCC[C@H]1C(=O)N[C@H](C(=O)N[C@H](C(=O)N[C@@H](CS)C(=O)N[C@@H](CCCNC(=N)N)C(=O)N[C@@H](CCCCN)C(=O)N1CCC[C@H]1C(=O)N[C@H](C(=O)N[C@H](C(=O)N[C@@H](CS)C(=O)N[C@@H](CCCNC(=N)N)C(=O)N[C@@H](CCCCN)C(=O)N1CCC[C@H]1C(=O)N[C@H](C(=O)N[C@H](C(=O)N[C@H](C(N)=O)[C@@H](C)CC)[C@@H](C)CC)[C@@H](C)CC)[C@@H](C)CC)[C@@H](C)CC)[C@@H](C)CC)[C@@H](C)CC)[C@@H](C)CC)[C@@H](C)CC (H-IIICRKPIICRKPIICRKPIII-NH2),16,2.52,16,8,> 64,4,16,8,16,< 5,> 64,2.52,> 64,2.52,16,2.52,16,> 90,> 64,> 128,selectivity ratio [21]: 16; viability at 128 µM [22]: > 90%; MIC [23]: 16 µM; MIC [24]: 4 µM; MIC [25]: 16 µM; selectivity ratio [26]: 2.52; MIC [27]: > 64 µM; selectivity ratio [28]: 2.52
